Experimental data from US20250243174A1, “ANTITUMORAL COMPOUNDS” (PHARMA MAR, S.A., priority 2021, published 2025).
Like-named read-outs stand apart in the source and are kept apart here.

Columns and labels:
MDA-MB-231 = assay: SRB colorimetric cytotoxicity assay, MDA-MB-231; format: cell-based; settings: Homo sapiens, read-out: GI50 (M) MDA-MB-231
Excerpt: The aim of this assay is to evaluate the in vitro cytostatic (ability to delay or arrest tumor cell growth) or cytotoxic (ability to kill tumor cells) activity of the samples being tested.
A colorimetric assay, using sulforhodamine B (SRB) reaction has been adapted to provide a quantitative measurement of cell growth and viability (using the technique developed by Skehan et al., J. Natl. Cancer Inst. 1990 and following the protocol detailed in V. Vichai and K. Kirtikara (2006) Nature Protoc. 1, 1112-1116.)
This form of assay employs 96-well cell culture microplates. All the cell lines used in this study were obtained from the American Type Culture Collection (ATCC), unless otherwise indicated, and derive from different types of human cancer.
Cells were maintained in Dulbecco's Modified Eagle Medium (DMEM) (for A549, HT-29 and MDA-MB-231) or RPMI (for PSN-1) supplemented with 10% Fetal Bovine Serum (FBS), 2 mM L-glutamine, 100 U/mL penicillin and 100 U/mL streptomycin at 37° C., 5% CO2 and 98% humidity. For the experiments, cells were harvested from subconfluent cultures using trypsinization and resuspended in fresh medium before counting and plating.
Cells were seeded in 96 well microtiter plates, at 5×10^3 cells per well in aliquots of 150 μL, and allowed to attach to the plate surface for 18 hours (overnight) in drug free medium. After that, one control (untreated) plate of each cell line was fixed (as described below) and used for time zero reference value. Culture plates were then treated with test compounds (50 μL aliquots of 4× concentrated compound stock solutions made in complete culture medium) using ten serial dilutions (concentrations ranging from […]) and triplicate cultures (final concentration of DMSO being 1%). After 72 hours treatment, the antitumor effect was measured by using the SRB methodology: Briefly, cells were washed twice with PBS, fixed for 15 min in 1% glutaraldehyde solution at room temperature, rinsed twice in PBS, and stained in 0.4% SRB solution for 30 min at room temperature. Cells were then rinsed several times with 1% acetic acid solution and air-dried at room temperature. SRB was then extracted in 10 mM trizma base solution and the absorbance measured in an automated spectrophotometric plate reader at 490 nm. Effects on cell growth and survival were estimated by applying the NCI algorithm (Boyd M R and Paull K D. Drug Dev. Res. 1995, 34, 91-104).
Using the mean±SD of triplicates, a dose-response curve was automatically generated using nonlinear regression analysis to a 4-parameter logistic curve. Three reference parameters were calculated (NCI algorithm) by automatic interpolation: GI50=compound concentration that produces […] cell growth inhibition, as compared to control cultures.

HGC-27 xenografts = assay: Example 6, gastric xenograft model HGC-27; format: in vivo; settings: for mean body weight reduction: Day 2, compound 2 2.0, compound 3 1.0, PM060184 16 mg/kg; for TV, median (IQR) / Median survival time: iv Q7dx3; for TV, median (IQR): high dose: PM060184 16, Comp. 2 2, Comp. 3 1 mg/kg; for mean time frame with tumor remission: high dose: compound 2 2.0, compound 3 1.0, PM060184 16 mg/kg, last observed day 63; for animals in complete tumor remission status: highest dose: compound 2 2.0, compound 3 1.0 mg/kg; for antitumor activity compared to PM060184-treated group at 16 mg/kg: once treatments were stopped (days 28, 35), 2 at 2 mg/kg, 3 at 1 mg/kg
Procedure: Female athymic nu/nu mice (Harlan Laboratories Models, S.L. Barcelona, Spain or Envigo, Spain) were utilized for all experiments. Animal were housed in individually ventilated cages Sealsafe® Plus, Techniplast S.P.A.), up to ten per cage on a 12-hour light-dark cycle at 21-23° C. and 40-60% humidity. Mice were allowed free access to irradiated standard rodent diet (Tecklad 2914C) and sterilized water. Animals were acclimated for at least 5 days prior to tumor implantation with a tumor cell suspension.
HGC27 cells were maintained in vitro at 37° C. with 5% CO2 in Iscove's Modified Dulbecco's Medium (Sigma Aldrich, Co). Culture cells were passage every 3 to 5 days on reaching confluence. Each animal was subcutaneously implanted (on the right flank using 26G needle and a 1 cc syringe) at 4-6 weeks of age with 5×10^6 HGC-27 cells suspended in 0.05 mL of a solution consisting of 50% Matrigel® (Corning Incorporated Life Sciences), 50% medium without serum or antibiotics.
All treatments were intravenously administered on a weekly basis at their MTD, ¼ MTD and 1/16 MTD (high, medium and low dose).
Briefly: • 4 to 6 week-old athymic nu/nu female mice were subcutaneously implanted with tumor cells growing in culture. • When tumors reached a certain volume, tumor bearing animals (N=8-10/group) were randomly allocated into treatment groups. • Tumor dimensions and body weights were recorded 2-3 times per week starting from the first day of treatment (Day 0). Treatments producing >20% lethality and/or 20% net body weight loss were considered toxic. Tumor volume was calculated using the equation (a·b^2)/2, where a and b were the longest and shortest diameters, respectively. Animals were euthanized when their tumors reached ca. 2,000 mm^3 and/or severe necrosis was seen. • Median was calculated for tumor volume on each measurement day. • Antitumor effect was assessed comparing tumor volume data from groups following the 1st, 2nd, 3rd study weeks, or more depending on the case, using a two-tailed Mann-Whitney U test. The data are presented as medians and interquartile range (IQR). • Complete tumor regression (CR) was defined when tumor volume<63 mm^3 for 2 or more consecutive measurements. • Treatment tolerability was assessed by monitoring body weight evolution, clinical signs of systemic toxicity as well as evidences of local damage at the injection site.
PM060184 was provided in the form of freeze-dried vials of lyophilized product. Each vial was reconstituted with water for infusion to a concentration of 2.5 mg/mL.
Compounds 2 and 3 were provided in the powder form and were solubilized with hydroxy-propyl-β-cyclodextrin (HPβCD), reaching a concentration of 1 mg/ml or 0.2 mg/ml, respectively. Placebo was provided in the form of lyophilised cake containing 1.2 g of hydroxy-propyl-β-cyclodextrin (HPβCD) which was reconstituted with water for infusion.
In these experiments, compounds 2, 3 and PM060184, as well as placebo, were intravenously administered once per week for 3 consecutive weeks, on Days 0, 7 and 14, whenever it was possible.
The experiment was carried out as previously explained. When tumors reached ca. 165-175 mm^3, tumor bearing animals (N=8/group) were randomly allocated into the following treatment groups:
Treatments were initiated on Day 0.

[1] = high dose: PM060184 16.0, Comp. 2 2.0, Comp. 3 1.0 mg/kg, ud = group not reached mortality
[2] = low dose: PM060184 1.0, Comp. 2 0.125, Comp. 3 0.0625 mg/kg
[3] = medium dose: PM060184 4.0, Comp. 2 0.5, Comp. 3 0.25 mg/kg

`C/C=C\C[C@@H](C/C=C\NC(=O)[C@@H](NC(=O)\C=C/C=C\C(C)=C\[C@H](C)[C@@H]1CC=C(OC)C(=O)O1)C(C)(C)C)OC(N)=O` [PM060184, reference compound] was tested, and the GI50 (MDA-MB-231; MDA-MB-231, 72 hours treatment, SRB) was 2.07e-10 M, the “mean body weight reduction” value (HGC-27 xenografts) was “ca. −4.1%” and the “TV, median (IQR)” value (HGC-27 xenografts; Day 7) was 250.7 (212.8-433.0) mm3. The “TV, median (IQR)” value (HGC-27 xenografts; Day 14) was 124.8 (102.8-213.2) mm3, the “TV, median (IQR)” value (HGC-27 xenografts; Day 21) was 88.5 (68.2-118.3) mm3 and the “TV, median (IQR)” value (HGC-27 xenografts; Day 28) was 114.4 (63.7-155.1) mm3. The “TV, median (IQR)” value (HGC-27 xenografts; Day 35) was 267.3 (100.4-414.0) mm3, the “animals that reached a complete remission (number out of eight)” value (HGC-27 xenografts; PM060184 16 mg/kg (high-dose)) was “three out of eight” and the Median survival time (HGC-27 xenografts; [1]) was 56 days. For the same compound, the “mean time frame with tumor remission” value (HGC-27 xenografts) was 18 days, the Median survival time (HGC-27 xenografts; [2]) was 15 days and the Median survival time (HGC-27 xenografts; [3]) was 27 days.

`COC1=CC[C@@H]([C@@H](C)/C=C(C)/C=C\C=C/C(=O)N[C@H](C(=O)N/C=C\C[C@H](CC=C(C)C)OC(N)=O)C(C)(C)C)OC1=O` [Compound 3] was tested, and the GI50 (MDA-MB-231; MDA-MB-231, 72 h) was 9.05e-11 M, the “mean body weight reduction” value (HGC-27 xenografts) was “ca. −13.1%” and the “TV, median (IQR)” value (HGC-27 xenografts; Day 7) was 366.0 (300.1-479.8) mm3. The “TV, median (IQR)” value (HGC-27 xenografts; Day 14) was 177.1 (142.3-256.0) mm3, the “TV, median (IQR)” value (HGC-27 xenografts; Day 21) was 75.0 (65.6-84.4) mm3 and the “TV, median (IQR)” value (HGC-27 xenografts; Day 28) was 66.7 (38.2-73.7) mm3. The “TV, median (IQR)” value (HGC-27 xenografts; Day 35) was 27.3 (21.4-41.4) mm3, the Median survival time (HGC-27 xenografts; [1]) was “ud” and the “mean time frame with tumor remission” value (HGC-27 xenografts) was “higher than 31.5 days”. The “animals in complete tumor remission status” value (HGC-27 xenografts) was 100%, the Median survival time (HGC-27 xenografts; [2]) was 12 days and the Median survival time (HGC-27 xenografts; [3]) was 30 days. The “antitumor activity compared to PM060184-treated group at 16 mg/kg” value (HGC-27 xenografts) was “big difference, in terms of antitumor activity, statistically significant”.

For `COC1=CC[C@@H]([C@@H](C)/C=C(C)/C=C\C=C/C(=O)N[C@H](C(=O)N/C=C\C[C@H](C/C=C(\C)F)OC(N)=O)C(C)(C)C)OC1=O` [Compound 2], the GI50 (MDA-MB-231; MDA-MB-231, 72 h) was 4.87e-11 M, the “mean body weight reduction” value (HGC-27 xenografts) was “ca. −13.1%” and the “TV, median (IQR)” value (HGC-27 xenografts; Day 7) was 313.6 (237.3-482.4) mm3. The “TV, median (IQR)” value (HGC-27 xenografts; Day 14) was 143.2 (96.1-223.6) mm3, the “TV, median (IQR)” value (HGC-27 xenografts; Day 21) was 75.0 (51.6-75.0) mm3 and the “TV, median (IQR)” value (HGC-27 xenografts; Day 28) was 42.5 (37.0-63.9) mm3. The “TV, median (IQR)” value (HGC-27 xenografts; Day 35) was 32.9 (20.4-36.6) mm3, the Median survival time (HGC-27 xenografts; [1]) was “ud” and the “mean time frame with tumor remission” value (HGC-27 xenografts) was “higher than 29.1 days”. For the same compound, the “animals in complete tumor remission status” value (HGC-27 xenografts) was 100%, the Median survival time (HGC-27 xenografts; [2]) was 14 days and the Median survival time (HGC-27 xenografts; [3]) was 38.5 days. For the same compound, the “antitumor activity compared to PM060184-treated group at 16 mg/kg” value (HGC-27 xenografts) was “big difference, in terms of antitumor activity, statistically significant”.
